Values belong to the compound of their own block, whether it stands above or below them. Activity calls are given as the source filed them. The rule behind the calls is not given here.
Experiments:
D(2) dopamine receptor [1] = biological target: T1, D(2) dopamine receptor (Homo sapiens, UniProt P14416); experiment: Agonist activity at D2L receptor in human HTLA cells assessed as beta arrestin recruitment at 6 uM after 18 hrs by luminescence assay; assay type: functional, cell-based
D(2) dopamine receptor [2] = biological target: T1, D(2) dopamine receptor; experiment: Agonist activity at human D2L receptor expressed in HEK293T cells coexpressing Gi subunit assessed as inhibition of isoproterenol-stimulated cAMP production by luminescence assay; assay type: functional, cell-based, HEK-293T
D(2) dopamine receptor [3] = biological target: T1, D(2) dopamine receptor; experiment: Displacement of [3H]N-methylspiperone from human D2L receptor expressed in CHO cells after 1.5 hrs by microbeta counting method; assay type: cell-based
D(2) dopamine receptor [4] = biological target: T1, D(2) dopamine receptor; details: HTLA, at 6 µM
Description: Agonist activity at D2L receptor in human HTLA cells assessed as beta arrestin recruitment at 6 uM after 18 hrs by luminescence assay relative to Quinpirole

Mus musculus [5] = experiment: Antipsychotic-like activity in beta- arrestin-2 knockout mouse assessed as inhibition of PCP-induced hyperlocomotion at 2 mg/kg, ip administered 30 min prior to PCP challenge measured after 90 min; assay type: functional, organism-based; design: dose 2 mg/kg
Mus musculus [6] = experiment: Antipsychotic-like activity in wild type mouse assessed as inhibition of PCP-induced hyperlocomotion at 2 mg/kg, ip administered 30 min prior to PCP challenge measured after 90 min; assay type: functional, organism-based; design: dose 2 mg/kg
[7] = biological target: D(1B) dopamine receptor (Homo sapiens) (UniProt P21918); experiment: Binding affinity to D5 receptor
[8] = biological target: D(1A) dopamine receptor (Homo sapiens) (UniProt P21728); experiment: Binding affinity to D1 receptor
D(2) dopamine receptor [9] = biological target: T1, D(2) dopamine receptor; experiment: Partial agonist activity at D2L receptor in human HTLA cells assessed as beta arrestin recruitment at 6 uM after 18 hrs by luminescence assay; assay type: functional, cell-based
D(2) dopamine receptor [10] = biological target: T1, D(2) dopamine receptor; details: HTLA, 6 uM
Description: Partial agonist activity at D2L receptor in human HTLA cells assessed as beta arrestin recruitment at 6 uM after 18 hrs by luminescence assay relative to Quinpirole

[11] = biological target: D(3) dopamine receptor (Homo sapiens) (UniProt P35462); experiment: Binding affinity to D3 receptor
[12] = biological target: T2, D(4) dopamine receptor (Homo sapiens) (UniProt P21917); experiment: Binding affinity to D4 receptor
T2 sequence (whole entry): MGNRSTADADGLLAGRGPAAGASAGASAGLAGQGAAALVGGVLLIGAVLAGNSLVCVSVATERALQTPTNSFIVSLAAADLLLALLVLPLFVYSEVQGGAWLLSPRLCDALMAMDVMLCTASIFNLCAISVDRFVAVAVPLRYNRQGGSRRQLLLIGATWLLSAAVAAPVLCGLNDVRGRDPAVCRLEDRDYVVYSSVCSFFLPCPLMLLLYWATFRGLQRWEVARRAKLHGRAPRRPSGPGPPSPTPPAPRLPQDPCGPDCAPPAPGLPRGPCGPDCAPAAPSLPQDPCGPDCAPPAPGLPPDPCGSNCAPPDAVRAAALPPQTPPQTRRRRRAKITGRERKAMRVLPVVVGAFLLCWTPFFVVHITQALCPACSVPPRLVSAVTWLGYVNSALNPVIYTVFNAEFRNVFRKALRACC

T1 sequence (P14416 whole entry): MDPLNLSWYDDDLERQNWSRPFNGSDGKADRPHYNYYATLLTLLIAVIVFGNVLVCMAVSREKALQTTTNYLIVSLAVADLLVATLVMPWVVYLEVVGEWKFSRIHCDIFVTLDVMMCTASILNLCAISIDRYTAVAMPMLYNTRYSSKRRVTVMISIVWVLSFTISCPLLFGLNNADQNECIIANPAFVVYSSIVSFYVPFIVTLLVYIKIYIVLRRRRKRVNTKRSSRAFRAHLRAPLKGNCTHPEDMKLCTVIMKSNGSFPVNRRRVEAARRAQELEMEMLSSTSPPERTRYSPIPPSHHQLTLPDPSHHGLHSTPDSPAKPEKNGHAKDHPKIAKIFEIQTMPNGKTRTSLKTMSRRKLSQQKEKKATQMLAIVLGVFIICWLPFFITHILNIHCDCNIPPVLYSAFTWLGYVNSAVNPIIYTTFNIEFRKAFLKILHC
Sequence of D(1B) dopamine receptor (Homo sapiens) (P21918 whole entry): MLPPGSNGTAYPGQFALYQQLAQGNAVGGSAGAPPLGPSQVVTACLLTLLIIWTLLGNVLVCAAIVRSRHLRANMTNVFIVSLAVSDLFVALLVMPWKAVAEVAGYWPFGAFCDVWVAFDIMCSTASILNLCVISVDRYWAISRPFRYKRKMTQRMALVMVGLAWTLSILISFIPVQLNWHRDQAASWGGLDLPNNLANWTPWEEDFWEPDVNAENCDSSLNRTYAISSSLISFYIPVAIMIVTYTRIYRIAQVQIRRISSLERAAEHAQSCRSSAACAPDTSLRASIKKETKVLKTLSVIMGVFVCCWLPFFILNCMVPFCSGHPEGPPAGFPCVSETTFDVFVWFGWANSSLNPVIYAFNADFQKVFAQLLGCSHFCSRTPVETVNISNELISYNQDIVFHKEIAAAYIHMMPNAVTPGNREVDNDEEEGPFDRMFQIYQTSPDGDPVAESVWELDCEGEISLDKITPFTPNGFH
Sequence of D(1A) dopamine receptor (Homo sapiens) (P21728 whole entry): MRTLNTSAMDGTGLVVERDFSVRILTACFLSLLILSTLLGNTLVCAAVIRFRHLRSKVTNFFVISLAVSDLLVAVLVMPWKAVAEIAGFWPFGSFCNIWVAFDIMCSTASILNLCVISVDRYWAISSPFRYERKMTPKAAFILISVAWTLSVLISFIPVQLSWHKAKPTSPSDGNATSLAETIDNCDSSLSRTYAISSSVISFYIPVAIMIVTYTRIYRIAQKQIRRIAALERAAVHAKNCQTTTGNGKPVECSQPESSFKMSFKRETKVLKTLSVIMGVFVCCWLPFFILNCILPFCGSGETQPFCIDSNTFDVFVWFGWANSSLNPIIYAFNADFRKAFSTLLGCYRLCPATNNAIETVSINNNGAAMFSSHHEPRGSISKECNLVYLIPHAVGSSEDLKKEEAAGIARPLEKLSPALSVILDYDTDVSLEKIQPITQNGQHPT
Sequence of D(3) dopamine receptor (Homo sapiens) (P35462 whole entry): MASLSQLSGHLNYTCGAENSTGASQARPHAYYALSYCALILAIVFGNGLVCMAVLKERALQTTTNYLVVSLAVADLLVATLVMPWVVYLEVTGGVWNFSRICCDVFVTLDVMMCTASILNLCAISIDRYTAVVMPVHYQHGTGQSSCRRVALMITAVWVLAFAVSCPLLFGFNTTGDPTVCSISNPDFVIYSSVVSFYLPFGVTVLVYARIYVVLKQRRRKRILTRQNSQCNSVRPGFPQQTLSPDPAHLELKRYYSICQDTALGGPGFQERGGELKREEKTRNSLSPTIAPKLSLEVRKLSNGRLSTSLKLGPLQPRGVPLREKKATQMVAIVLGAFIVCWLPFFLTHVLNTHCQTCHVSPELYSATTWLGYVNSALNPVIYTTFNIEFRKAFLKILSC

Compound: CC(C)Oc1ccccc1N1CCN(CCCCOc2ccc3c(c2)NC(=O)CC3)CC1
EC50 (D(2) dopamine receptor [1]): 2 nM | EC50 (D(2) dopamine receptor [2]; read-out: EC50): 25 nM | Ki (D(2) dopamine receptor [3]): 3.1 nM | Emax (D(2) dopamine receptor [4]): 63%

Compound: CCOc1ccc(N2CCN(CCCCOc3ccc4c(c3)NC(=O)CC4)CC2)cc1
EC50 (D(2) dopamine receptor [1]): 50 nM | EC50 (D(2) dopamine receptor [2]; read-out: EC50): 251 nM | Ki (D(2) dopamine receptor [3]): 53 nM | Emax (D(2) dopamine receptor [4]): 82%

Activity [7]: inactive | Activity [8]: inactive
Compound: O=C1CCc2ccc(OCCCCN3CCCN(c4cccc(Cl)c4Cl)CC3)cc2N1
inhibition (Mus musculus [5]): inactive | inhibition (Mus musculus [6]): Active

Compound: Clc1cccc(N2CCCN(CCCCOc3ccc4scnc4c3)CC2)c1Cl
EC50 (D(2) dopamine receptor [2]; hek-293t): Not Active

Compound: Clc1cccc(C2CCN(CCCOc3ccc4scnc4c3)CC2)c1Cl
EC50 (D(2) dopamine receptor [1]): 50 nM | EC50 (D(2) dopamine receptor [2]; hek-293t): Not Active

Compound: Clc1cccc(N2CCCN(CCCOc3ccc4scnc4c3)CC2)c1Cl
Emax (D(2) dopamine receptor [4]): 71%

Compound: O=C1NCCc2ccc(OCCCN3CCN(c4cccc(Cl)c4Cl)CC3)cc21
EC50 (D(2) dopamine receptor [1]): 20 nM | EC50 (D(2) dopamine receptor [2]; hek-293t): Not Active

Compound: O=C1CCc2ccc(OC[C@H]3CC[C@H](CN4CCN(c5cccc(Cl)c5Cl)CC4)CC3)cc2N1
EC50 (D(2) dopamine receptor [9]): 1580 nM | EC50 (D(2) dopamine receptor [2]; hek-293t): Not Active | Ki (D(2) dopamine receptor [3]): 145 nM | Emax (D(2) dopamine receptor [10]): 45%

Compound: O=C1CCc2ccc(Oc3cccc(CN4CCN(c5cccc(Cl)c5Cl)CC4)c3)cc2N1
EC50 (D(2) dopamine receptor [9]): 316 nM | EC50 (D(2) dopamine receptor [2]; hek-293t): Not Active

Compound: Clc1cccc(N2CCN(CCCCOc3ccc4cn[nH]c4c3)CC2)c1Cl
EC50 (D(2) dopamine receptor [9]): 100 nM | EC50 (D(2) dopamine receptor [2]; hek-293t): Not Active

Compound: O=C1CCc2ccc(OCCCCN3CCCN(c4cccc(Cl)c4Cl)CC3)nc2N1
EC50 (D(2) dopamine receptor [1]): 1.6 nM | EC50 (D(2) dopamine receptor [2]; hek-293t): Not Active

Compound: O=c1[nH]c2ccc(OCCCCN3CCN(c4cccc(Cl)c4Cl)CC3)cc2[nH]1
EC50 (D(2) dopamine receptor [2]; hek-293t): Not Active

Compound: Clc1cccc(C2CCN(CCCCOc3ccc4scnc4c3)CC2)c1Cl
inhibition (Mus musculus [5]): inactive | inhibition (Mus musculus [6]): Active | Activity [7]: inactive | Activity [11]: Active | Activity [12]: Active | Activity [8]: inactive | EC50 (D(2) dopamine receptor [1]): 79 nM | EC50 (D(2) dopamine receptor [2]; hek-293t): Not Active | Emax (D(2) dopamine receptor [4]): 78%

Compound: Clc1cccc(N2CCN(CCCOc3ccc4cn[nH]c4c3)CC2)c1Cl
EC50 (D(2) dopamine receptor [1]): 200 nM | EC50 (D(2) dopamine receptor [2]; hek-293t): Not Active

Compound: O=C1NCCc2ccc(OCCCN3CCCN(c4cccc(Cl)c4Cl)CC3)cc21
EC50 (D(2) dopamine receptor [1]): 6.3 nM | EC50 (D(2) dopamine receptor [2]; hek-293t): Not Active

Compound: O=C1NCCc2ccc(OCCCCN3CCN(c4cccc(Cl)c4Cl)CC3)cc21
EC50 (D(2) dopamine receptor [9]): 4 nM | EC50 (D(2) dopamine receptor [2]; hek-293t): Not Active

Compound: Clc1cccc(N2CCN(CCCCOc3ccc4scnc4c3)CC2)c1Cl
EC50 (D(2) dopamine receptor [9]): 63 nM | EC50 (D(2) dopamine receptor [2]; hek-293t): Not Active

Compound: CCOc1cccc(N2CCN(CCCCOc3ccc4c(c3)NC(=O)CC4)CC2)c1
EC50 (D(2) dopamine receptor [1]): 10 nM | EC50 (D(2) dopamine receptor [2]; read-out: EC50): 158 nM | Ki (D(2) dopamine receptor [3]): 21 nM | Emax (D(2) dopamine receptor [4]): 40%

Compound: O=C1CCc2ccc(Oc3ccc(CN4CCN(c5cccc(Cl)c5Cl)CC4)cc3)cc2N1
EC50 (D(2) dopamine receptor [9]): 501 nM | EC50 (D(2) dopamine receptor [2]; hek-293t): Not Active

Compound: O=c1[nH]c2ccc(OCCCCN3CCC(c4cccc(Cl)c4Cl)CC3)cc2[nH]1
EC50 (D(2) dopamine receptor [2]; hek-293t): Not Active

EC50 (D(2) dopamine receptor [2]; hek-293t): Not Active
Compound: O=C1CCc2ccc(OCCCCN3CCN(c4cccc(Cl)c4Cl)CC3)nc2N1

Compound: Clc1cccc(N2CCN(CCCOc3ccc4scnc4c3)CC2)c1Cl
EC50 (D(2) dopamine receptor [1]): 126 nM | EC50 (D(2) dopamine receptor [2]; hek-293t): Not Active
